According to patent publication US7388016B2, “Dibenzonaphthyridine derivatives and methods of use thereof” (Wyeth, priority 2005, dated 2008):

Target: T1, PDK-1 (Homo sapiens, UniProt O15530)
T1 sequence (O15530 1-556): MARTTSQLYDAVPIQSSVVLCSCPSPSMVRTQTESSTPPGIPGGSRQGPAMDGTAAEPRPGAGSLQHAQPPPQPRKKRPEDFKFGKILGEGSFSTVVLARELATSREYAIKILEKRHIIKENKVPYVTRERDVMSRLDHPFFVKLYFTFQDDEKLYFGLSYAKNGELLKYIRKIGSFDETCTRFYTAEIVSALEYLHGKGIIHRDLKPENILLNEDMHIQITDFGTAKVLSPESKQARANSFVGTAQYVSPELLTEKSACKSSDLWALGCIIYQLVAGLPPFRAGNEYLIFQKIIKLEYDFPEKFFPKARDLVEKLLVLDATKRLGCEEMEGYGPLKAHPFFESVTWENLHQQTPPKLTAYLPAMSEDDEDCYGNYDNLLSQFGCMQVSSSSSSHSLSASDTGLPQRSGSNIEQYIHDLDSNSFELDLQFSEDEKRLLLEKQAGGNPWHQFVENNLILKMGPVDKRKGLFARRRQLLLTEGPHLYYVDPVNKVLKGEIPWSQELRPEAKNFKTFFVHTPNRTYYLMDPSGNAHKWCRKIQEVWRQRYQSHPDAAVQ
Experiment: In vitro PDK-1 inhibition ELISA assay (phosphorylation of SGK1 on Threonine 256)
Type: biochemical
Conditions: PDK-1 phosphorylates 6xHIS tagged SGK1, 17 minutes reaction, chemiluminescent detection
Experimental: The ability of illustrative Dibenzonaphthyridine Derivatives to inhibit PDK-1 in vitro can be determined using the ELISA assay as decribed in Kobayashi et al., Biochem. J. 339:319-328 (1999) and Park et al., EMBO J. 18:3024-3033 (1999).
In this in vitro assay, PDK-1 kinase phosphorylates SGK1 on Threonine 256. After 17 minutes, the reaction is quenched via the addition of urea. The 6×HIS tagged SGK1 is then bound to 96 well Ni-NTA HisSorb plates and the phosphorylated SGK1 is detected using rabbit derived anti-phospho SGK antibody as the primary antibody and HRP coupled anti-rabbit antibody as the secondary antibody. HRP is then detected using a Chemiluminescent Substrate.

IC50 [nM]	SMILES
243	COc1cc2c(cc1OCCCN1CCCCC1)ncc1c(N)nc3c(C)c(N)ccc3c12 [Ib-29, 11-methoxy-4-methyl-10-(3-piperidin-1-ylpropoxy)dibenzo[c,f]-2,7-naphthyridine-3,6-diamine]
281	COc1cc2c(cc1OCCN(C)CCN(C)C)ncc1c(N)nc3c(C)c(N)ccc3c12 [Ib-30, 10-{2-[[2-(dimethylamino)ethyl](methyl)amino]ethoxy}-11-methoxy-4-methyldibenzo[c,f]-2,7-naphthyridine-3,6-diamine]
539	COc1cc2c(cc1OCCc1c[nH]c3ccccc13)ncc1c(N)nc3c(C)c(N)ccc3c12 [Ib-31, 10-[2-(1H-indol-3-yl)ethoxy]-11-methoxy-4-methyldibenzo[c,f]-2,7-naphthyridine-3,6-diamine]
667	COc1cc2c(cc1OCCc1ccc(N(C)C)cc1)ncc1c(N)nc3c(C)c(N)ccc3c12 [Ib-32, 10-{2-[4-(dimethylamino)phenyl]ethoxy}-11-methoxy-4-methyldibenzo[c,f]-2,7-naphthyridine-3,6-diamine]
384	COc1cc2c(cc1OCCC1CCN(C)CC1)ncc1c(N)nc3c(C)c(N)ccc3c12 [Ib-33, 11-methoxy-4-methyl-10-[2-(1-methylpiperidin-4-yl)ethoxy]dibenzo[c,f]-2,7-naphthyridine-3,6-diamine]
1770	COc1cc2c(cc1OCC1CCCN(C)C1)ncc1c(N)nc3c(C)c(N)ccc3c12 (centres unmarked) [Ib-34, 11-methoxy-4-methyl-10-[(1-methylpiperidin-3-yl)methoxy]dibenzo[c,f]-2,7-naphthyridine-3,6-diamine]
111	COc1cc2c(cc1OCCCN1CCCC1=O)ncc1c(N)nc3c(C)c(N)ccc3c12 [Ib-35, 1-{3-[(7,10-diamino-2-methoxy-9-methyldibenzo[c,f]-2,7-naphthyridin-3-yl)oxy]propyl}pyrrolidin-2-one]
1730	COc1cc2ncc3c(N)nc4c(C)c(N5C(=O)c6ccccc6C5=O)ccc4c3c2cc1OC [Ib-36, 2-(6-amino-10,11-dimethoxy-4-methyldibenzo[c,f]-2,7-naphthyridin-3-yl)-1H-isoindole-1,3(2H)-dione]
670	COc1cc2ncc3c(N)nc4cc(N)ccc4c3c2cc1OC [Ib-38, 10,11-dimethoxydibenzo[c,f]-2,7-naphthyridine-3,6-diamine]
258	COc1cc2ncc3c(N)nc4c(C)cccc4c3c2cc1OC [Ib-39, 10,11-dimethoxy-4-methyldibenzo[c,f]-2,7-naphthyridin-6-amine]
2440	COc1cc2c(cc1OCCCOCc1ccccc1)ncc1c(N)nc3c(C)c(N)ccc3c12 [Ib-42, 10-[3-(benzyloxy)propoxy]-11-methoxy-4-methyldibenzo[c,f]-2,7-naphthyridine-3,6-diamine]
2980	COc1cc2c(cc1OC[C@@H]1CCCN1Cc1ccccc1)ncc1c(N)nc3c(C)c(N)ccc3c12 [Ib-43, 10-{[(2S)-1-benzylpyrrolidin-2-yl]methoxy}-11-methoxy-4-methyldibenzo[c,f]-2,7-naphthyridine-3,6-diamine]
949	COc1cc2c(cc1OC[C@@H]1CCCN1C[C@@H]1CCCN1C)ncc1c(N)nc3c(C)c(N)ccc3c12 [Ib-44, 11-methoxy-4-methyl-10-[((2S)-1-{[(2S)-1-methylpyrrolidin-2-yl]methyl}pyrrolidin-2-yl)methoxy]dibenzo[c,f]-2,7-naphthyridine-3,6-diamine]
4530	COc1cc2c(cc1OCCC1CCCC1)ncc1c(N)nc3c(C)c(N)ccc3c12 [Ib-45, 10-(2-cyclopentylethoxy)-11-methoxy-4-methyldibenzo[c,f]-2,7-naphthyridine-3,6-diamine]
212	COc1cc2c(cc1OCCC1CC1)ncc1c(N)nc3c(C)c(N)ccc3c12 [Ib-46, 10-(2-cyclopropylethoxy)-11-methoxy-4-methyldibenzo[c,f]-2,7-naphthyridine-3,6-diamine]
172	CCOCCOc1cc2ncc3c(N)nc4c(C)c(N)ccc4c3c2cc1OC [Ib-47, 10-(2-ethoxyethoxy)-11-methoxy-4-methyldibenzo[c,f]-2,7-naphthyridine-3,6-diamine]
1370	COc1cc2c(cc1O)ncc1c(N)nc3c(C)c(N)ccc3c12 [Ib-48, 7,10-diamino-2-methoxy-9-methyldibenzo[c,f]-2,7-naphthyridin-3-ol]
2220	COc1cc2ncc3c(N)nc4c(C)c(Cl)ccc4c3c2cc1OC [Ib-49, 3-chloro-10,11-dimethoxy-4-methyldibenzo[c,f]-2,7-naphthyridin-6-amine]
46	COc1cc2ncc3c(N)nc4c(C)c(O)ccc4c3c2cc1OC [Ib-50, 6-amino-10,11-dimethoxy-4-methyldibenzo[c,f]-2,7-naphthyridin-3-ol]
48.7	COc1cc2ncc3c(N)nc4c(C)c(OC)ccc4c3c2cc1OC [Ib-51, 3,10,11-trimethoxy-4-methyldibenzo[c,f]-2,7-naphthyridin-6-amine]
36600	CNc1nc2c(C)c(N)ccc2c2c1cnc1cc(OC)c(OC)cc12 [Ic-1, 10,11-dimethoxy-N-6,4-dimethyldibenzo[c,f]-2,7-naphthyridine-3,6-diamine]

SMILES	IC50 [nM]
COc1cc2c(cc1OCCC(C)C)ncc1c(N)nc3c(C)c(N)ccc3c12 [Ib-40, 11-methoxy-4-methyl-10-(3-methylbutoxy)dibenzo[c,f]-2,7-naphthyridine-3,6-diamine]	1180
COc1cc2c(cc1OCCC(C)(C)C)ncc1c(N)nc3c(C)c(N)ccc3c12 [Ib-41, 10-(3,3-dimethylbutoxy)-11-methoxy-4-methyldibenzo[c,f]-2,7-naphthyridine-3,6-diamine]	6440
